Experimental data from patent publication US5663331A, “Cephalosporin compounds” (Il-Dong Pharm. Co., Ltd., priority 1992, dated 1997).
Converted amounts (≈) assume the structure as drawn.

Assays:
Type in all cases: cell-based
[1] = test system: Bacillus subtilis ATCC 6633; experiment: MIC, two-fold dilution method, Bacillus subtilis ATCC 6633; conditions: 10^6 CFU per ml, 37° C., 18 to 20 hours; for MIC: ATCC6633, Muller Hinton Broth, read-out: Antibacterial Activity (MIC); for Antibacterial Activity (MIC): Muller Hinton Broth
Description: (§1) In order to illustrate the usefulness of the invented compounds, the minimal inhibitory concentrations-(MIC) thereof against standard strains were determined and compared with Cefotaxime, a known compound. Also, the in vitro antibacterial activity was determined by a two-fold dilution method as described below: That is, the two-fold serial dilutions of the compound were made and dispersed in Muller Hinton Broth medium. Standard test strain which had the 10^6 CFU per ml was inoculated on the medium, and was incubated at 37° C. for 18 to 20 hours.

[2] = test system: Staphylococcus aureus ATCC 65389; experiment: MIC, two-fold dilution method, Staphylococcus aureus ATCC 65389; conditions: 10^6 CFU per ml, 37° C., 18 to 20 hours; for MIC: ATCC65389, Muller Hinton Broth, read-out: Antibacterial Activity (MIC); for Antibacterial Activity (MIC): Muller Hinton Broth
Description: as §1

[3] = test system: Staphylococcus epidermidis ATCC 12228; experiment: MIC, two-fold dilution method, Staphylococcus epidermidis ATCC 12228; conditions: 10^6 CFU per ml, 37° C., 18 to 20 hours; for MIC: ATCC12228, Muller Hinton Broth, read-out: Antibacterial Activity (MIC); for Antibacterial Activity (MIC): Muller Hinton Broth
Description: as §1

[4] = test system: Streptococcus faecalis ATCC 10541; experiment: MIC, two-fold dilution method, Streptococcus faecalis ATCC 10541; conditions: 10^6 CFU per ml, 37° C., 18 to 20 hours; for MIC: Enterococcus faecalis, ATCC10541, Muller Hinton Broth, read-out: Antibacterial Activity (MIC); for Antibacterial Activity (MIC): Muller Hinton Broth
Description: as §1

[5] = test system: Pseudomonas aeurginosa NCTC 10490; experiment: MIC, two-fold dilution method, Pseudomonas aeurginosa NCTC 10490; conditions: 10^6 CFU per ml, 37° C., 18 to 20 hours; for MIC: NCTC10490, Muller Hinton Broth, read-out: Antibacterial Activity (MIC); for Antibacterial Activity (MIC): Muller Hinton Broth
Description: as §1

[6] = test system: Esherichia coli ATCC 25922; experiment: MIC, two-fold dilution method, Esherichia coli ATCC 25922; conditions: Muller Hinton Broth, 10^6 CFU per ml, 37° C., 18 to 20 hours; for MIC: read-out: Antibacterial Activity (MIC)
Description: as §1

[7] = test system: Klebsiella pneumoniae ATCC 10031; experiment: MIC, two-fold dilution method, Klebsiella pneumoniae ATCC 10031; conditions: 10^6 CFU per ml, 37° C., 18 to 20 hours; for MIC: ATCC10031, Muller Hinton Broth, read-out: Antibacterial Activity (MIC); for Antibacterial Activity (MIC): Muller Hinton Broth
Description: as §1

SMILES | MIC [1] [µg/mL] | MIC [2] [µg/mL] | MIC [3] [µg/mL] | MIC [4] [µg/mL] | MIC [5] [µg/mL] | MIC [6] [µg/mL] | MIC [7] [µg/mL] | Antibacterial Activity (MIC) [1] [µg/mL] | Antibacterial Activity (MIC) [2] [µg/mL] | Antibacterial Activity (MIC) [3] [µg/mL] | Antibacterial Activity (MIC) [4] [µg/mL] | Antibacterial Activity (MIC) [5] [µg/mL] | Antibacterial Activity (MIC) [6] [µg/mL] | Antibacterial Activity (MIC) [7] [µg/mL]
CO/N=C(\C(=O)NC1C(=O)N2C(C(=O)[O-])=C(CSc3cc[n+](C4CC4)c4cc(N5CCNCC5)c(F)cc34)CS[C@H]12)c1csc(N)n1 (stereo partly drawn) [Compound I-5, 7-[(Z)-2-(2-aminothiazol-4-yl)-2-(methoxyimino)acetamido]-3-(1-cyclopropyl-6-fluoro-7-piperazinylquinolinium-4-yl)thiomethyl-3-cephem-4-carboxylate] | 0.39 (≈ 0.558 µM) | 1.56 (≈ 2.23 µM) | 0.78 (≈ 1.12 µM) | 0.39 (≈ 0.558 µM) | 3.13 (≈ 4.48 µM) | 12.5 (≈ 17.9 µM) | 0.1 (≈ 0.143 µM) |  |  |  |  |  |  | 
CO/N=C(\C(=O)NC1C(=O)N2C(C(=O)[O-])=C(CSc3cc[n+](C4CC4)c4cc(N5CCN(C)CC5)c(F)cc34)CSC12)c1csc(N)n1 (stereo not drawn) [Compound I-6, 7-[(Z)-2-(2-aminothiazol-4-yl)-2-(methoxyimino)acetamido]-3-[1-cyclopropyl-6-fluoro-7-(N-methylpiperazinyl)quinolinium-4-yl]thiomethyl-3-cephem-4-carboxylate] | 0.39 (≈ 0.547 µM) | 0.39 (≈ 0.547 µM) | 0.39 (≈ 0.547 µM) | 0.2 (≈ 0.281 µM) | 1.56 (≈ 2.19 µM) | 12.5 (≈ 17.5 µM) | 0.1 (≈ 0.14 µM) |  |  |  |  |  |  | 
CCN1CCN(c2cc3c(cc2F)c(SCC2=C(C(=O)[O-])N4C(=O)C(NC(=O)/C(=N\OC)c5csc(N)n5)C4SC2)cc[n+]3C2CC2)CC1 (stereo not drawn) [Compound I-7, 7-[(Z)-2-(2-aminothiazol-4-yl)-2-(methoxyimino)acetamido]-3-3-[1-cyclopropyl-6-fluoro-7-(1-ethylpiperazinyl)quinolinium-4-yl]-thiomethyl-3-cephem-4-carboxylate] | 0.2 (≈ 0.275 µM) | 0.39 (≈ 0.537 µM) | 0.2 (≈ 0.275 µM) | 0.05 (≈ 0.0688 µM) | 0.39 (≈ 0.537 µM) | 0.78 (≈ 1.07 µM) | 0.05 (≈ 0.0688 µM) |  |  |  |  |  |  | 
CO/N=C(\C(=O)NC1C(=O)N2C(C(=O)[O-])=C(CSc3cc[n+](C4CC4)c4cc(N5CCNCC5C)c(F)cc34)CS[C@H]12)c1csc(N)n1 (stereo partly drawn) [Compound I-8, 7-[(Z)-2-(2-aminothiazol-4-yl)-2-(methoxyimino)acetamido]-3-[1-cyclopropyl-6-fluoro-7-(2-methylpiperazinyl)quinolinium-4-yl]thiomethyl-3-cephem-4-carboxylate] |  |  |  |  |  |  |  | 0.2 | 0.39 | 0.2 | 0.2 | 0.39 | 0.78 | 0.05
CC[n+]1ccc(SCC2=C(C(=O)[O-])N3C(=O)C(NC(=O)/C(=N\OC)c4csc(N)n4)C3SC2)c2cc(F)c(N3CCNCC3)cc21 (stereo not drawn) [Compound I-9, 7-[(Z)-2-(2-aminothiazol-4-yl)-2-(methoxyimino)acetamido]-3-(1-ethyl-6-fluoro-7-piperazinylquinolinum-4-yl)thiomethyl-3-cephem-4-carboxylate] | 0.1 (≈ 0.146 µM) | 0.2 (≈ 0.291 µM) | 0.2 (≈ 0.291 µM) | 0.1 (≈ 0.146 µM) | 3.13 (≈ 4.56 µM) | 1.56 (≈ 2.27 µM) | 0.78 (≈ 1.14 µM) |  |  |  |  |  |  | 
CC[n+]1ccc(SCC2=C(C(=O)[O-])N3C(=O)C(NC(=O)/C(=N\OC)c4csc(N)n4)C3SC2)c2cc(F)c(N3CCN(C)CC3)cc21 (stereo not drawn) [Compound I-10, 7-[(Z)-2-(2-aminothiazol-4-yl)-2-(methoxyimino)acetamido]-3-(1-ethyl-6-fluoro-7-(N-methylpiperazinyl)quinolinium-4-yl]thiomethyl-3-cephem-4-carboxylate] | 0.39 (≈ 0.556 µM) | 0.39 (≈ 0.556 µM) | 1.56 (≈ 2.23 µM) | 1.56 (≈ 2.23 µM) | 6.25 (≈ 8.92 µM) | 12.5 (≈ 17.8 µM) | 0.78 (≈ 1.11 µM) |  |  |  |  |  |  | 
CCN1CCN(c2cc3c(cc2F)c(SCC2=C(C(=O)[O-])N4C(=O)C(NC(=O)/C(=N\OC)c5csc(N)n5)C4SC2)cc[n+]3CC)CC1 (stereo not drawn) [Compound I-11, 7-[(Z)-2-(2-aminothiazol-4-yl)-2-(methoxyimino)acetamido]-3-[1-ethyl-6-fluoro-7-(1-ethylpiperazinyl)quinolinium-4-yl]thiomethyl-3-cephem-4-carboxylat] | 0.1 (≈ 0.14 µM) | 0.1 (≈ 0.14 µM) | 0.2 (≈ 0.28 µM) | 0.05 (≈ 0.0699 µM) | 1.56 (≈ 2.18 µM) | 1.56 (≈ 2.18 µM) | 0.39 (≈ 0.546 µM) |  |  |  |  |  |  | 
CC[n+]1ccc(SCC2=C(C(=O)[O-])N3C(=O)C(NC(=O)/C(=N\OC)c4csc(N)n4)[C@H]3SC2)c2cc(F)c(N3CCNCC3C)cc21 (stereo partly drawn) [Compound I-12, 7-[(Z)-2-(2-aminothiazol-4-yl)-2-(methoxyimino)acetamido]-3-[1-ethyl-6-fluoro-7-(2-methylpiperazinyl)quinolinium-4-yl]thiomethyl-3-cephem-4-carboxylate] |  |  |  |  |  |  |  | 0.1 | 0.1 | 0.2 | 0.025 | 1.56 | 1.56 | 0.39
C=CC[n+]1ccc(SCC2=C(C(=O)[O-])N3C(=O)C(NC(=O)/C(=N\OC)c4csc(N)n4)[C@H]3SC2)c2cc(F)c(N3CCNCC3)cc21 (stereo partly drawn) [Compound I-13, 7-[(Z)-2-(2-aminothiazol-4-yl)-2-(methoxyimino)acetamido]-3-(1-allyl-6-fluoro-7-piperazinylquinolinium-4-yl)thiomethyl-3-cephem-4-carboxylate] | 0.39 (≈ 0.558 µM) | 1.56 (≈ 2.23 µM) | 1.56 (≈ 2.23 µM) | 0.78 (≈ 1.12 µM) | 1.56 (≈ 2.23 µM) | 3.13 (≈ 4.48 µM) | 0.78 (≈ 1.12 µM) |  |  |  |  |  |  | 
C=CC[n+]1ccc(SCC2=C(C(=O)[O-])N3C(=O)C(NC(=O)/C(=N\OC)c4csc(N)n4)C3SC2)c2cc(F)c(N3CCN(C)CC3)cc21 (stereo not drawn) [Compound I-14, 7-[(Z)-2-(2-aminothiazol-4-yl)-2-(methoxyimino)acetamido]-3-[1-allyl-6-fluoro-7-(N-methylpiperazinyl)quinolinium-4-yl]thiomethyl-3-cephem-4-carboxylate] | 0.1 (≈ 0.14 µM) | 0.78 (≈ 1.09 µM) | 0.39 (≈ 0.547 µM) | 0.2 (≈ 0.281 µM) | 3.13 (≈ 4.39 µM) | 3.13 (≈ 4.39 µM) | 1.56 (≈ 2.19 µM) |  |  |  |  |  |  | 
C=CC[n+]1ccc(SCC2=C(C(=O)[O-])N3C(=O)C(NC(=O)/C(=N\OC)c4csc(N)n4)C3SC2)c2cc(F)c(N3CCN(CC)CC3)cc21 (stereo not drawn) [Compound I-15, 7-[(Z)-2(2-aminothiazol-4-yl)-2-(methoxyimino)acetamido]-3-[1-allyl-6-fluoro-7-(1-ethylpiperazinyl)quinolinium-4-yl]thiomethyl-3-cephem-4-carboxylate] | 0.1 (≈ 0.138 µM) | 0.2 (≈ 0.275 µM) | 0.78 (≈ 1.07 µM) | 0.39 (≈ 0.537 µM) | 1.56 (≈ 2.15 µM) | 1.56 (≈ 2.15 µM) | 0.39 (≈ 0.537 µM) |  |  |  |  |  |  | 
C=CC[n+]1ccc(SCC2=C(C(=O)[O-])N3C(=O)C(NC(=O)/C(=N\OC)c4csc(N)n4)C3SC2)c2cc(F)c(N3CCNCC3C)cc21 (stereo not drawn) [Compound I-16, 7-[(Z)-2-(2-aminothiazol-4-yl)-2-(methoxyimino)acetamido]-3-[1-allyl-6-fluoro-7-(2-methylpiperazinyl)quinolinium-4-yl]thiomethyl 3-cephem-4-carboxylate] |  |  |  |  |  |  |  | 0.2 | 0.2 | 0.39 | 0.78 | 1.56 | 1.56 | 0.39
